ChEMBL document CHEMBL4393720, “Design, synthesis and biological evaluation of bromophenol-thiazolylhydrazone hybrids inhibiting the interaction of translation initiation factors eIF4E/eIF4G as multifunctional agents for cancer treatment” (Eur J Med Chem, 2019)
The source made the active and inactive calls. The calls are words filed in the database; no cut-off is given here.

Columns and labels:
[1] = Subacute toxicity in SPF Kunming mouse assessed as mortality at 2000 mg/kg, po administered once a day for 14 days; type: organism-based; settings: in vivo, 336 h
[2] = test system: HUVEC; test: Antiproliferative activity against human HUVEC cells assessed as inhibition of cell growth incubated for 48 hrs by MTT assay; type: cell-based
[3] = test system: A549; test: Induction of apoptosis in human A549 cells at 1 to 5 uM incubated for 48 hrs by annexin-V and propidium iodide staining based flow cytometric analysis; type: functional, cell-based
[4] = Inhibition of PI3K/Akt/mTOR signalling pathway in human A549 cells assessed as reduction in mTOR phosphorylation at 1 to 5 uM incubated for 48 hrs by Western blot analysis; type: cell-based
[5] = test system: A549; test: Antiproliferative activity against human A549 cells assessed as inhibition of cell growth incubated for 48 hrs by MTT assay; type: functional, cell-based; settings: A549, 48 h
[6] = test system: A549; test: Induction of autophagy in human A549 cells assessed as autophagic bodies formation at 2.5 uM incubated for 48 hrs by transmission electron microscopy; type: functional, cell-based
[7] = Inhibition of PI3K/Akt/mTOR signalling pathway in human A549 cells assessed as reduction in PI3K phosphorylation at 1 to 5 uM incubated for 48 hrs by Western blot analysis; type: cell-based
[8] = test system: A549; test: Induction of apoptosis in human A549 cells assessed as activation of PARP at 1 to 5 uM incubated for 48 hrs by Western blot analysis; type: functional, cell-based
[9] = test system: A549; test: In vivo inhibition of eIF4E in human A549 cells xenografted in athymic nude mouse assessed as decrease in phosphorylation of eIF4E at 25 to 50 mg/kg, ip administered once daily for 21 days by Western blot analysis; type: functional, organism-based
[10] = test system: A549; test: In vivo inhibition of PI3K/Akt/mTOR signalling pathway in human A549 cells xenografted in athymic nude mouse assessed as decrease in phosphorylation of mTOR at 25 to 50 mg/kg, ip administered once daily for 21 days by Western blot analysis; type: functional, organism-based

Compound: Fc1ccc(/C=N/Nc2nc(-c3ccc(C(F)(F)F)cc3)cs2)cc1F
- Activity [1]: Non-Toxic
- IC50 [2]: 79.5 µM
- Activity [3]: Active
- inhibition [4]: Active
- IC50 [5]: 2.61 µM
- Activity [6]: Active
- inhibition [7]: Active
- Activity [8]: Active
- inhibition [9]: Active
- inhibition [10]: Active
